Data published in ChEMBL document CHEMBL5120888, “Voratins A-C: Pyridinium Alkaloids from the Marine Dinoflagellate Effrenium voratum with Inhibitory Effects on Biomarkers for Benign Prostatic Hyperplasia” (J Nat Prod, 2022).
Activity calls are given as the source filed them. The rule behind the calls is not given here.

What was measured:
[1] = system: RWPE-1; assay: Cytotoxicity against human RWPE-1 cells at 0.1 to 1 uM incubated for 24 hrs by MTT assay; type: toxicity, cell-based; conditions: rwpe-1, 24 h, dose 0.1-1 µM
[2] = system: LNCaP; assay: Inhibition of testosterone propionate induced AR expression in human LNCaP cells pretreated with TP for 1 hr followed by compound addition at 1 to 10 uM by Western blotting analysis; type: functional, cell-based; conditions: dose 1-10 µM
[3] = Inhibition of testosterone propionate induced 5AR2 expression in human LNCaP cells pretreated with TP for 1 hr followed by compound addition at 10 uM by Western blotting analysis; type: functional
[4] = Inhibition of testosterone propionate induced PSA expression in human LNCaP cells pretreated with TP for 1 hr followed by compound addition at 10 uM by Western blotting analysis; type: functional
[5] = system: LNCaP; assay: Inhibition of testosterone propionate induced PSA expression in human LNCaP cells pretreated with TP for 1 hr followed by compound addition at 1 to 10 uM by Western blotting analysis; type: functional, cell-based; conditions: dose 1-10 µM
[6] = system: RWPE-1; assay: Inhibition of testosterone propionate induced PCNA expression in human RWPE-1 cells pretreated with TP for 1 hr followed by compound addition at 1 to 10 uM by Western blotting analysis; type: functional, cell-based; conditions: dose 1-10 µM
[7] = Inhibition of testosterone propionate induced PSA expression in human RWPE-1 cells pretreated with TP for 1 hr followed by compound addition at 1 to 10 uM by Western blotting analysis; type: functional; parameters: scale not given: the % may be the effect or the level left; conditions: dose 1-10 µM
[8] = system: LNCaP; assay: Suppression of testosterone propionate induced 5AR2 expression in human LNCaP cells pretreated with TP for 1 hr followed by compound addition at 10 uM by Western blotting analysis; type: functional, cell-based
[9] = system: LNCaP; assay: Suppression of testosterone propionate induced AR expression in human LNCaP cells pretreated with TP for 1 hr followed by compound addition at 10 uM by Western blotting analysis; type: functional, cell-based
[10] = system: LNCaP; assay: Suppression of testosterone propionate induced PSA expression in human LNCaP cells pretreated with TP for 1 hr followed by compound addition at 10 uM by Western blotting analysis; type: functional, cell-based

In the case of C=C1C[C@H](C(=O)[O-])O[C@@]2(C1)C[C@@H](C)C[C@H]([C@@H](O)c1cccc3[n+]1CC[C@@H]3C)O2, the Activity [1] is reported as “Non-Toxic”, the inhibition [2] is reported as “Active” and the inhibition at 10 µM [3] is reported as 53%. It also gave an inhibition at 10 µM [4] of 53%.
For C[C@@H]1C[C@H]([C@@H](O)c2cccc3[n+]2CC[C@@H]3C)O[C@@]2(CC[C@H](C(=O)[O-])O2)C1, the Activity [1] was “Non-Toxic”, the inhibition [5] was “Active” and the inhibition [2] was “Active”. For the same molecule, the inhibition at 10 µM [3] was 61%, the inhibition at 10 µM [4] was 61% and the inhibition [6] was “Active”. It also gave an Activity [7] of 65%.
For CC(C)(C)NC(=O)[C@H]1CC[C@H]2[C@@H]3CC[C@H]4NC(=O)C=C[C@]4(C)[C@H]3CC[C@]12C, the Activity [8] was “Active”, the Activity [9] was “Active” and the Activity [10] was “Active”.
With C=C1C[C@H](C(=O)[O-])O[C@@]2(C1)C[C@@H](C)C[C@H]([C@@H](O)c1cccc3[n+]1CC[C@H]3C)O2 the Activity [1] was “Non-Toxic”, the inhibition [5] was “Active” and the inhibition [2] was “Active”.
